Measured values from ChEMBL document CHEMBL1125968, “5-HT2 antagonist activity of 3-aminomethyltetralones” (Bioorg Med Chem Lett, 1991).

What was measured:
[1] = species: Rattus norvegicus; test: Tested for the antagonistic activity against serotonin-induced contractions in rat aorta ring strip of endothelium; format: functional, organism-based; settings: read-out: pA2 (converted)
[2] = biological target: Serotonin 2 (5-HT2) receptor (Rattus norvegicus, UniProt P30994+P08909+P14842); test: Tested for the binding affinity towards 5-HT2 receptor measured by [3H]ketanserin binding to frontal cerebral cortex membranes of rat; format: tissue-based, Membrane

Row | Log Ki [2] | SMILES | Kb [1]
1 |  | O=C1CC(CN2CCC(C(=O)c3ccc(F)cc3)CC2)Cc2ccccc21 (stereo unspecified) | 13.8 nM
2 | -6.48 | COc1ccccc1N1CCN(CC2CC(=O)c3ccccc3C2)CC1 (stereo unspecified) | 513 nM
3 | -7.25 | O=C(CCCN1CCN(CC2CC(=O)c3ccccc3C2)CC1)c1ccc(F)cc1 (stereo unspecified) | 
4 | -7.29 | O=C(CCCN1CCN(CC2CC(=O)c3ccc(F)cc3C2)CC1)c1ccc(F)cc1 (stereo unspecified) | 56.2 nM
